Measurements from the NIST ThermoML archive (doi:10.1016/j.jct.2015.06.019).
± gives the expanded uncertainty stated by the source.

Experiments:
[1] = DSC
[2] = Molar enthalpy of transition or fusion; settings: DSC

SMILES: COC(=O)[C@H](c1ccccc1Cl)N1CCc2sccc2C1.O=S(=O)(O)O [(S)-(+)-Clopidogrel hydrogen sulfate]
- Triple point temperature ([1]; Crystal 1): 458.4 ± 1 K
- Triple point temperature ([1]; Crystal 2): 454.7 ± 1 K
- Molar enthalpy of transition or fusion ([2]; Crystal 1): 7.98 ± 0.335 kcal/mol
- Molar enthalpy of transition or fusion ([2]; Crystal 2): 9.09 ± 0.382 kcal/mol
